Test results reported in ChEMBL document CHEMBL1201862, “PubChem BioAssay data set” (2004).
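A five-concentration, 48-hour dose response in 96-well plates underlies each endpoint, interpolated linearly between surrounding concentrations. GI50 = concentration required for 50% inhibition of growth.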 Activity calls are given as the source filed them. Rule as the data show it: active = GI50 up to about 1.1 µM and inactive = higher.

Assays:
Assay in all cases: DTP human tumour cell line panel, 48 h
BT-549 = tested on: BT-549
A498 = tested on: A498
A549 = tested on: A549
SR = tested on: SR
CCRF-CEM = tested on: CCRF-CEM
OVCAR-4 = tested on: OVCAR-4
PC-3 = tested on: PC-3
HOP-62 = tested on: HOP-62
SK-MEL-28 = tested on: SK-MEL-28
T47D = tested on: T47D
HT-29 = tested on: HT-29
NCI/ADR-RES = tested on: NCI/ADR-RES
UACC-62 = tested on: UACC-62
SK-MEL-5 = tested on: SK-MEL-5
M14 = tested on: M14
SW-620 = tested on: SW-620
MDA-MB-435 = tested on: MDA-MB-435
NCI-H522 = tested on: NCI-H522
SF-539 = tested on: SF-539
LOX IMVI = tested on: LOX IMVI

COc1ccc2[nH]c(C(O)(Cc3cccnc3)Cc3cccnc3)cc2c1
GI50 (BT-549): > 100 µM (inactive) | GI50 (A498): > 100 µM (inactive) | GI50 (A549): > 100 µM (inactive) | GI50 (SR): > 100 µM (inactive) | GI50 (CCRF-CEM): > 100 µM (inactive) | GI50 (OVCAR-4): > 100 µM (inactive) | GI50 (PC-3): > 100 µM (inactive) | GI50 (HOP-62): > 100 µM (inactive) | GI50 (SK-MEL-28): > 100 µM (inactive) | GI50 (T47D): > 100 µM (inactive) | GI50 (HT-29): > 100 µM (inactive) | GI50 (NCI/ADR-RES): > 100 µM (inactive) | GI50 (UACC-62): > 100 µM (inactive) | GI50 (SK-MEL-5): > 100 µM (inactive) | GI50 (M14): > 100 µM (inactive) | GI50 (SW-620): > 100 µM (inactive) | GI50 (MDA-MB-435): > 100 µM (inactive)

COc1ccc2o/c(=N/c3ccccc3)c(C(N)=O)cc2c1
GI50 (BT-549): 91 µM (inactive) | GI50 (A549): > 55.3 µM (inactive) | GI50 (NCI-H522): > 54.8 µM (inactive) | GI50 (SR): > 100 µM (inactive) | GI50 (CCRF-CEM): > 100 µM (inactive) | GI50 (OVCAR-4): > 100 µM (inactive) | GI50 (PC-3): > 100 µM (inactive) | GI50 (HOP-62): 32.2 µM (inactive) | GI50 (SK-MEL-28): > 100 µM (inactive) | GI50 (T47D): > 100 µM (inactive) | GI50 (NCI/ADR-RES): > 69.8 µM (inactive) | GI50 (SK-MEL-5): > 100 µM (inactive) | GI50 (M14): > 100 µM (inactive) | GI50 (SW-620): > 100 µM (inactive) | GI50 (SF-539): > 75.3 µM (inactive) | GI50 (LOX IMVI): > 100 µM (inactive) | GI50 (MDA-MB-435): 3.45 µM (inactive)

Oc1c(Cl)cc2cc1-c1cc(cc(Cl)c1O)CCc1c(cc(Cl)c(O)c1Cl)-c1cc(Cl)c(c(Cl)c1O)/C=C\2
GI50 (BT-549): 16 µM (inactive) | GI50 (A498): 14.3 µM (inactive) | GI50 (A549): 10.6 µM (inactive) | GI50 (SR): 3.91 µM (inactive) | GI50 (CCRF-CEM): 3.56 µM (inactive) | GI50 (OVCAR-4): 9.04 µM (inactive) | GI50 (PC-3): 8.3 µM (inactive) | GI50 (HOP-62): 7.74 µM (inactive) | GI50 (SK-MEL-28): 7.08 µM (inactive) | GI50 (T47D): 8.41 µM (inactive) | GI50 (HT-29): 11.4 µM (inactive) | GI50 (NCI/ADR-RES): 13.7 µM (inactive) | GI50 (UACC-62): 8.69 µM (inactive) | GI50 (SK-MEL-5): 8.17 µM (inactive) | GI50 (M14): 7.23 µM (inactive) | GI50 (SW-620): 9.44 µM (inactive) | GI50 (LOX IMVI): 9.44 µM (inactive) | GI50 (MDA-MB-435): 8.02 µM (inactive)

CC1(C)C(=O)/C=C\C(=O)C(C)(C)C(=O)/C=C\C(=O)C(C)(C)C2=CC=C(O2)C(C)(C)C(=O)/C=C\C1=O
GI50 (BT-549): 11.9 µM (inactive) | GI50 (A498): 16.8 µM (inactive) | GI50 (A549): 21.1 µM (inactive) | GI50 (NCI-H522): 1.44 µM (inactive) | GI50 (SR): 1.22 µM (inactive) | GI50 (CCRF-CEM): 0.368 µM (active) | GI50 (OVCAR-4): 6.61 µM (inactive) | GI50 (PC-3): 15.8 µM (inactive) | GI50 (HOP-62): 24.3 µM (inactive) | GI50 (SK-MEL-28): 4.99 µM (inactive) | GI50 (T47D): 0.0775 µM (active) | GI50 (HT-29): 2.89 µM (inactive) | GI50 (UACC-62): 5.07 µM (inactive) | GI50 (SK-MEL-5): 7.85 µM (inactive) | GI50 (M14): 2.21 µM (inactive) | GI50 (SW-620): 1.66 µM (inactive) | GI50 (SF-539): 9.62 µM (inactive) | GI50 (LOX IMVI): 5.14 µM (inactive) | GI50 (MDA-MB-435): 15.7 µM (inactive)
